Article PMC8007111, “Novel Potent Muscarinic Receptor Antagonists: Investigation on the Nature of Lipophilic Substituents in the 5- and/or 6-Positions of the 1,4-Dioxane Nucleus” (Journal of Medicinal Chemistry, 2020)

Columns and labels:
[1] = molecular target: T1, hM2 mAChR (Homo sapiens, UniProt P08172); experiment: [3H]NMS inhibition radioligand binding, hM2 in CHO-K1 cell membranes; conditions: [3H]NMS, CHO-K1 cell membranes; mean ± S.E.M.
T1 construct: expressed in transfected cells; host or cells: CHO-K1 (membrane preparation)
T1 sequence (P08172 1-466): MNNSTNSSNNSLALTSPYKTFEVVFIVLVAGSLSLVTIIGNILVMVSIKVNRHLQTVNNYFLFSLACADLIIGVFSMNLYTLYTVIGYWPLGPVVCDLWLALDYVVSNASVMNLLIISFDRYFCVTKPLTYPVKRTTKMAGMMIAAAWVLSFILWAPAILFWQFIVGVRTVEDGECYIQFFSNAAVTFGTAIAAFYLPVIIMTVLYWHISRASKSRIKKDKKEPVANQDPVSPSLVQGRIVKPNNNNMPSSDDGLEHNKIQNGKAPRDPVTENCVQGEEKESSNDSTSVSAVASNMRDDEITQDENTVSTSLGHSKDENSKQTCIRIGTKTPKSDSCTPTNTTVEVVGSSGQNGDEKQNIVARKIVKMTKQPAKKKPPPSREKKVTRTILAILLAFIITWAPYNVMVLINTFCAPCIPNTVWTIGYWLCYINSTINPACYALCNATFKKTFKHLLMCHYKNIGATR

[2] = molecular target: T2, hM4 mAChR (Homo sapiens, UniProt P08173); experiment: [3H]NMS inhibition radioligand binding, hM4 in CHO-K1 cell membranes; conditions: [3H]NMS, CHO-K1 cell membranes; mean ± S.E.M.
T2 construct: expressed in transfected cells; host or cells: CHO-K1 (membrane preparation)
T2 sequence (P08173 1-479): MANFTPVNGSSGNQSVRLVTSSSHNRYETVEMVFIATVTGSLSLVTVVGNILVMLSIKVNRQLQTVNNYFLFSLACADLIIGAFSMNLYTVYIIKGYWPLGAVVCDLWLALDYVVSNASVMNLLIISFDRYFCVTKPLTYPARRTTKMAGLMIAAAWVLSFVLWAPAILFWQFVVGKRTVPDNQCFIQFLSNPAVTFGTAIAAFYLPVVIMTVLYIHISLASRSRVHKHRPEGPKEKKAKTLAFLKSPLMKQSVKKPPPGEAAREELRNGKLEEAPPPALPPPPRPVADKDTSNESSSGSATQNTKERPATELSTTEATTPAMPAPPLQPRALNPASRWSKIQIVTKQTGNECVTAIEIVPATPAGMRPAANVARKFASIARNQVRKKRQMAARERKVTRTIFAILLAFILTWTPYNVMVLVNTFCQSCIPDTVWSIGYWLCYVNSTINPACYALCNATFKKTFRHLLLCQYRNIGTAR

C[N+](C)(C)C[C@@H]1COC[C@](c2ccccc2)(C2CCCCC2)O1.[I-] (relative stereo) [3b, 1-((2R*,6R*)-6-Cyclohexyl-6-phenyl-1,4-dioxan-2-yl)-N,N,N-trimethylmethanaminium Iodide]
pKi hM2 [1]: 7.91 ± 0.13
pKi hM4 [2]: 9.03 ± 0.16
